Results on one compound are retold here after paper doi:10.1101/2023.02.25.530034v1 (biorxiv, 2023).

As usually defined, the IC50 is the concentration at which inhibition is half-maximal. High values mean lower potency, low ones higher potency.

Where only a bound is given, the exact number is not on record here.

The target in one assay is T1, rhBCAT1 (Homo sapiens, UniProt P54687).
T1 sequence (P54687 1-386): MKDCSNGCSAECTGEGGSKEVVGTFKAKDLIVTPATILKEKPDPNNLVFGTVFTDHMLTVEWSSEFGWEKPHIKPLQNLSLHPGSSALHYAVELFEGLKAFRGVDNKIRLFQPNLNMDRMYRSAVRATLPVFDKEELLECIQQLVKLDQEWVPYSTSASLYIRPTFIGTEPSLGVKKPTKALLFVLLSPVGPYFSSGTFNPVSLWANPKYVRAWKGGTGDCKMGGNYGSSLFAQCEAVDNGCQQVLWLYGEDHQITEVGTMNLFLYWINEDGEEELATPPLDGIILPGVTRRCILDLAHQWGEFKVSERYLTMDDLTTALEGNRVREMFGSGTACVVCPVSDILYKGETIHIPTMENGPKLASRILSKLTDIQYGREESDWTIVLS
Put plainly: aminotransferase activity assay with leucine dehydrogenase. The class given is biochemical.

Another assay has as its target T2, rhBCAT2 (Homo sapiens, UniProt O15382).
T2 sequence (O15382 28-392): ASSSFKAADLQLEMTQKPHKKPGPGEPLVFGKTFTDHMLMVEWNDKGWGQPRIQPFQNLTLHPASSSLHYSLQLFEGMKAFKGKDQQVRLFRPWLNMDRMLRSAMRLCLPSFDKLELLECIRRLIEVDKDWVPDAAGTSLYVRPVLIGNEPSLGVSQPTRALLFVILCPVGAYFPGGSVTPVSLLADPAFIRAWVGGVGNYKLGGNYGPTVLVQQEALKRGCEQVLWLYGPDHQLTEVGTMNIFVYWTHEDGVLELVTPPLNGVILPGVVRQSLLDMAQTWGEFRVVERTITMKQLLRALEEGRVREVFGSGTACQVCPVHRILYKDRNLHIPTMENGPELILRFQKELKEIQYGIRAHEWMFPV
The assay is described as above. In kind it is biochemical.

In the case of `O=C(O)CCC(C(=O)c1ccc(Br)cc1)c1ccccc1` (centres unmarked) [ERG245], the figures for the IC50 at rhBCAT1 and at rhBCAT2 were about 0.5 nM and over 1000 nM, respectively.
